This note sets out measurements from article PMC8212937 (Alcoholism, clinical and experimental research, 2009).

Assay [1] has as its target T1, ALDH-1 (Homo sapiens, UniProt P00352).
T1 sequence (P00352 2-501): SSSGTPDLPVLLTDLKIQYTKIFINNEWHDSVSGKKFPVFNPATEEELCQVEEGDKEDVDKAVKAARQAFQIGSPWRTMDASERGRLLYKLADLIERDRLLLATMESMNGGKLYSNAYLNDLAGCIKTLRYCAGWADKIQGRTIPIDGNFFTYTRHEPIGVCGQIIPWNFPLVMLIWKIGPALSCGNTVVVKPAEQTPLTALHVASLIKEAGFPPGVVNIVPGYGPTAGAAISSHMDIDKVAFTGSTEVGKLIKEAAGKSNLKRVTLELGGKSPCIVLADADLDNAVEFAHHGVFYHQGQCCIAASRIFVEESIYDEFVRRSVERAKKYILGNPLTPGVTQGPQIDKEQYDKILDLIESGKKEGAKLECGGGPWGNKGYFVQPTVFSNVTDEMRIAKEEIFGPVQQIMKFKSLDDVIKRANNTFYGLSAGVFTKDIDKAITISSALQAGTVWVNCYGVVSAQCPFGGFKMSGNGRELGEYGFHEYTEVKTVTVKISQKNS
Put plainly: fluorimetric dehydrogenase activity assay. The format is biochemical.

In assay [2] the target is T2, aldehyde dehydrogenase 2 (ALDH-2) (Homo sapiens, UniProt P05091).
T2 sequence (P05091 18-517): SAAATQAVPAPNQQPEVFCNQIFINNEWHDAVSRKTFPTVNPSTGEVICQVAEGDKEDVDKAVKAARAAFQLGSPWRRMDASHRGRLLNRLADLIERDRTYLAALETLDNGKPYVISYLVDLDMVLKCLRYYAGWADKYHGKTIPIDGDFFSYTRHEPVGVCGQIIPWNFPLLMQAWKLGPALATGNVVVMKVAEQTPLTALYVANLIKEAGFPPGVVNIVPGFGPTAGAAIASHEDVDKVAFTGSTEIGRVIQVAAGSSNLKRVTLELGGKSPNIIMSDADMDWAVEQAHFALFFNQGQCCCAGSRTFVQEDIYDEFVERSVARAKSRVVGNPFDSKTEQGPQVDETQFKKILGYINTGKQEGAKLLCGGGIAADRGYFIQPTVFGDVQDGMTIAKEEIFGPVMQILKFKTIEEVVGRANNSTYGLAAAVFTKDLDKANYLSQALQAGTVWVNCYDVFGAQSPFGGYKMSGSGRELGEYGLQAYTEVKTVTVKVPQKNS
As to the kind of experiment: fluorimetric dehydrogenase activity assay. It is filed as biochemical.

With `CS(=O)(=O)Nc1ccc(-c2coc3cc(OCc4cccc(C(=O)O)c4)ccc3c2=O)cc1` [CVT-10216, 3-((3-(4-(methylsulfonamido)phenyl)-4-oxo-4H-chromen-7-yloxy)methyl)benzoic acid], the IC50 in assay [1] is 1300 nM; in assay [2] it was about 29 nM.

As usually defined, the IC50 is the concentration needed to halve the response being measured. High values mean weaker potency in that assay, low ones greater potency in that assay.
